pKi: −log10 of the molar value. *1 amine or outer side, *2 acyl side, *3 side chain or, on linkers, in order; H or OH if unused. Where a SMILES comes first, the peptide text is derived from it. [ ]: non-standard residue; d: D form. 2Nal = N[CH](Cc1ccc2ccccc2c1)C(=O)O; X1 = CCC(C)C(N[*:1])C(=O)C(=O)[*:2]
Experiments:
Cathepsin L = Cathepsin L (Homo sapiens, UniProt P07711); test: Cathepsin L enzyme assay; type: biochemical; conditions: Ki by Morrison equation; pH 5.5, substrate Z-Phe-Arg-Amc; read-out: Cat L
Sequence of Cathepsin L (P07711 114-333, species assumed): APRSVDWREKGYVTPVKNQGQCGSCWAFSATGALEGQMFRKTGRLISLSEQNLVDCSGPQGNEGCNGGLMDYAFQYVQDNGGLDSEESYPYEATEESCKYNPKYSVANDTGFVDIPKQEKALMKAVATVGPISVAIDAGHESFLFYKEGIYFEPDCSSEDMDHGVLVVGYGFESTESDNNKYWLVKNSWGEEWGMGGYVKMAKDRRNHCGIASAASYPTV
Text: Two wells contained DMSO only for controls.
Velocity was converted to μM/sec.

Calpain = Calpain enzyme assay; type: biochemical; conditions: Ki by Morrison equation; pH 7.5, 5 mM CaCl2

SMILES	pKi (Cathepsin L)	pKi (Calpain)
CCC(C)C(NC(=O)C(=O)CCNC(=O)Cc1ccccc1)C(=O)NC(C)(C)C(=O)O (centres unmarked) [PHELIX133, 2-methyl-2-(3-methyl-2-(2-oxo-4-(2-phenylacetamido)butanamido)pentanamido)propanoic acid]	3.68	
CC(NC(=O)C(Cc1ccccc1)NC(=O)Cc1ccccc1)C(=O)C(=O)NC(Cc1ccccc1)C(=O)NC(Cc1ccc(-c2ccccc2)cc1)C(N)=O (centres unmarked) [PHELIX213, N-(1-((3-([1,1′-biphenyl]-4-yl)-1-amino-1-oxopropan-2-yl)amino)-1-oxo-3-phenylpropan-2-yl)-2-oxo-3-(3-phenyl-2-(2-phenylacetamido)propanamido)butanamide]		< 5.00
CC(NC(=O)C(Cc1ccccc1)NC(=O)Cc1ccccc1)C(=O)C(=O)NC(Cc1ccccc1)C(=O)NC(Cc1ccc2ccccc2c1)C(N)=O (centres unmarked) [PHELIX216, N-(1-((1-amino-3-(naphthalen-2-yl)-1-oxopropan-2-yl)amino)-1-oxo-3-phenylpropan-2-yl)-2-oxo-3-(3-phenyl-2-(2-phenylacetamido)propanamido)butanamide]	< 3.00	< 4.00
CCC(C)C(NC(=O)C(=O)C(C)NC(=O)C(Cc1ccccc1)NC(=O)Cc1ccccc1)C(=O)NC1(C(=O)O)CCCC1 (centres unmarked) [PHELIX217, 1-(3-methyl-2-(2-oxo-3-(3-phenyl-2-(2-phenylacetamido)propanamido)butanamido)pentanamido)cyclopentane-1-carboxylic acid]	2.97	< 4.00
CCC(C)C(NC(=O)C(=O)CCNC(=O)C(Cc1ccccc1)NC(=O)Cc1ccccc1)C(=O)NC(C)(C)C(=O)O (centres unmarked) [PHELIX218, 13-benzyl-5-(sec-butyl)-2,2-dimethyl-4,7,8,12,15-pentaoxo-16-phenyl-3,6,11,14-tetraazahexadecanoic acid]	< 3.00	
CC(NC(=O)C(Cc1ccccc1)NC(=O)Cc1ccccc1)C(=O)C(=O)NC(Cc1ccccc1)C(=O)NC(Cc1ccc(-c2ccccc2)cc1)C(N)=O (centres unmarked) [PHELIX247, N-(1-((3-([1,1′-biphenyl]-4-yl)-1-amino-1-oxopropan-2-yl)amino)-1-oxo-3-phenylpropan-2-yl)-2-oxo-3-(3-phenyl-2-(2-phenylacetamido)propanamido)butanamide]		< 5.00
CC(NC(=O)C(Cc1ccccc1)NC(=O)Cc1ccccc1)C(=O)C(=O)NC(Cc1ccccc1)C(=O)NC(Cc1ccc(-c2ccccc2)cc1)C(N)=O (centres unmarked) [PHELIX248, N-(1-((3-([1,1′-biphenyl]-4-yl)-1-amino-1-oxopropan-2-yl)amino)-1-oxo-3-phenylpropan-2-yl)-2-oxo-3-(3-phenyl-2-(2-phenylacetamido)propanamido)butanamide]		< 5.00
CCC(C)C(NC(=O)C(CC(C)C)NC(=O)OCc1ccccc1)C(=O)C(=O)NCC(=O)NC(Cc1ccc2ccccc2c1)C(N)=O (centres unmarked) [PHELIX257, benzyl (1-((1-((2-((1-amino-3-(naphthalen-2-yl)-1-oxopropan-2-yl)amino)-2-oxoethyl)amino)-4-methyl-1,2-dioxohexan-3-yl)amino)-4-methyl-1-oxopentan-2-yl)carbamate]		9.04
CCC(C)C(NC(=O)C(CC(C)C)NC(=O)OCc1ccccc1)C(=O)C(=O)NC(CCCNC(=N)N)C(=O)NC(Cc1ccc2ccccc2c1)C(N)=O (centres unmarked) [PHELIX289, benzyl (1-((1-((1-((1-amino-3-(naphthalen-2-yl)-1-oxopropan-2-yl)amino)-5-guanidino-1-oxopentan-2-yl)amino)-4-methyl-1,2-dioxohexan-3-yl)amino)-4-methyl-1-oxopentan-2-yl)carbamate]	> 9.70	7.69
CC[C@H](C)C(NC(=O)[C@H](CC(C)C)NC(=O)OCc1ccccc1)C(=O)C(=O)N[C@@H](CCCNC(=N)N)C(N)=O (some centres unmarked) [PHELIX290, benzyl (1-((1-((1-amino-5-guanidino-1-oxopentan-2-yl)amino)-4-methyl-1,2-dioxohexan-3-yl)amino)-4-methyl-1-oxopentan-2-yl)carbamate]	8.57	8.14
CCC(C)C(NC(=O)C(CC(C)C)NC(=O)OCc1ccccc1)C(=O)C(=O)N(C)CC(=O)NC(Cc1ccc2ccccc2c1)C(N)=O (centres unmarked) [PHELIX291, benzyl (1-((1-((2-((1-amino-3-(naphthalen-2-yl)-1-oxopropan-2-yl)amino)-2-oxoethyl)(methyl)amino)-4-methyl-1,2-dioxohexan-3-yl)amino)-4-methyl-1-oxopentan-2-yl)carbamate]	5.23	< 5.00
CCC(C)C(C(=O)C(=O)NCC(=O)NC(Cc1ccc2ccccc2c1)C(N)=O)N(C)C(=O)C(CC(C)C)NC(=O)OCc1ccccc1 (centres unmarked) [PHELIX292, benzyl (1-((1-((2-((1-amino-3-(naphthalen-2-yl)-1-oxopropan-2-yl)amino)-2-oxoethyl)amino)-4-methyl-1,2-dioxohexan-3-yl)(methyl)amino)-4-methyl-1-oxopentan-2-yl)carbamate]	7.43	5.37
CCC(C)C(NC(=O)C(CC(C)C)NC(=O)OCc1ccccc1)C(=O)C(=O)NCC(=O)NC(Cc1ccc2ccccc2c1)C(N)=O (centres unmarked) [PHELIX293, benzyl (1-((1-((2-((1-amino-3-(naphthalen-2-yl)-1-oxopropan-2-yl)amino)-2-oxoethyl)amino)-4-methyl-1,2-dioxohexan-3-yl)amino)-4-methyl-1-oxopentan-2-yl)carbamate]		5.92
CCC(C)C(NC(=O)C(CC(C)C)NC(=O)C(Cc1ccccc1)NC(=O)OCc1ccccc1)C(=O)C(=O)NC(CCCNC(=N)N)C(N)=O (centres unmarked) [PHELIX294, benzyl (1-amino-10-(sec-butyl)-6-carbamoyl-1-imino-13-isobutyl-8,9,12,15-tetraoxo-17-phenyl-2,7,11,14-tetraazaheptadecan-16-yl)carbamate]	8.60	9.31
CCC(C)C(NC(=O)C(CC(C)C)NC(=O)OCc1ccccc1)C(=O)C(=O)NC(C)C(=O)NC(Cc1ccc2ccccc2c1)C(N)=O (centres unmarked) [PHELIX295, benzyl (1-((1-((1-((1-amino-3-(naphthalen-2-yl)-1-oxopropan-2-yl)amino)-1-oxopropan-2-yl)amino)-4-methyl-1,2-dioxohexan-3-yl)amino)-4-methyl-1-oxopentan-2-yl)carbamate]	9.08	8.69
CCC(C)C(NC(=O)C(CC(C)C)NC(=O)OCc1ccccc1)C(=O)C(=O)NC(C)(C)C(=O)NC(Cc1ccc2ccccc2c1)C(N)=O (centres unmarked) [PHELIX296, benzyl (1-((1-((1-((1-amino-3-(naphthalen-2-yl)-1-oxopropan-2-yl)amino)-2-methyl-1-oxopropan-2-yl)amino)-4-methyl-1,2-dioxohexan-3-yl)amino)-4-methyl-1-oxopentan-2-yl)carbamate]	5.76	5.81
CCC(C)C(NC(=O)C(CC(C)C)NC(=O)OCc1ccccc1)C(=O)C(=O)NC1(C(=O)NC(Cc2ccc3ccccc3c2)C(N)=O)CC1 (centres unmarked) [PHELIX298, benzyl (1-((1-((1-((1-amino-3-(naphthalen-2-yl)-1-oxopropan-2-yl)carbamoyl)cyclopropyl)amino)-4-methyl-1,2-dioxohexan-3-yl)amino)-4-methyl-1-oxopentan-2-yl)carbamate]	6.50	5.59
CCC(C)C(NC(=O)C(CC1CC1)NC(=O)OCc1ccccc1)C(=O)C(=O)NCC(=O)NC(Cc1ccc2ccccc2c1)C(N)=O (centres unmarked) [PHELIX299, benzyl (1-((1-((2-((1-amino-3-(naphthalen-2-yl)-1-oxopropan-2-yl)amino)-2-oxoethyl)amino)-4-methyl-1,2-dioxohexan-3-yl)amino)-3-cyclopropyl-1-oxopropan-2-yl)carbamate]	7.91	8.32
CCC(C)C(NC(=O)C(Cc1c[nH]cn1)NC(=O)Cc1ccccc1)C(=O)C(=O)NCC(=O)NC(Cc1ccc2ccccc2c1)C(N)=O (centres unmarked) [PHELIX302, 3-(3-(1H-imidazol-4-yl)-2-(2-phenylacetamido)propanamido)-N-(2-((1-amino-3-(naphthalen-2-yl)-1-oxopropan-2-yl)amino)-2-oxoethyl)-4-methyl-2-oxohexanamide]	6.41	6.70
CCC(C)C(NC(=O)C(CC(C)C)NC(=O)OCc1ccccc1)C(=O)C(=O)NCC(=O)NCc1ccc2ccccc2c1 (centres unmarked) [PHELIX303, benzyl (4-methyl-1-((4-methyl-1-((2-((naphthalen-2-ylmethyl)amino)-2-oxoethyl)amino)-1,2-dioxohexan-3-yl)amino)-1-oxopentan-2-yl)carbamate]	8.94	8.22
CCC(C)C(NC(=O)C(CC(C)C)NC(C)=O)C(=O)C(=O)NCC(=O)NC(Cc1ccc2ccccc2c1)C(N)=O (centres unmarked) [PHELIX307, 3-(2-acetamido-4-methylpentanamido)-N-(2-((1-amino-3-(naphthalen-2-yl)-1-oxopropan-2-yl)amino)-2-oxoethyl)-4-methyl-2-oxohexanamide]		8.58
CCC(C)C(NC(=O)C(CC(C)C)NC(C)=O)C(=O)C(=O)NCC(=O)NC(Cc1ccc2ccccc2c1)C(N)=O (centres unmarked) [PHELIX310]		8.26
CCC(C)C(NC(=O)CNC(=O)C(Cc1ccc2ccccc2c1)NC(C)=O)C(=O)C(=O)NC(CC(C)C)C(=O)NC(Cc1ccccc1)C(N)=O (centres unmarked) [PHELIX338, 3-(2-(2-acetamido-3-(naphthalen-2-yl)propanamido)acetamido)-N-(1-((1-amino-1-oxo-3-phenylpropan-2-yl)amino)-4-methyl-1-oxopentan-2-yl)-4-methyl-2-oxohexanamide] (Ac-[2Nal]G[X1]LF-NH2; configuration not given here)	5.54	
CC(C)CC(NC(=O)C(Cc1ccccc1)NC(=O)OCc1ccccc1)C(=O)NC(Cc1ccccc1)C(=O)C(=O)NC(CCCNC(=N)N)C(N)=O (centres unmarked) [PHELIX339, benzyl (1-amino-10-benzyl-6-carbamoyl-1-imino-13-isobutyl-8,9,12,15-tetraoxo-17-phenyl-2,7,11,14-tetraazaheptadecan-16-yl)carbamate]		8.66
CCC(C)C(NC(=O)C(CC(C)C)NC(=O)OCc1ccccc1)C(=O)C(=O)N(C)C(Cc1ccccc1)C(N)=O (centres unmarked) [PHELIX358, benzyl (1-((1-((1-amino-1-oxo-3-phenylpropan-2-yl)(methyl)amino)-4-methyl-1,2-dioxohexan-3-yl)amino)-4-methyl-1-oxopentan-2-yl)carbamate]	< 6.00	
